Assay results taken from patent publication US8912120B2, “Herbicidal compositions comprising 4-amino-3-chloro-5-fluoro-6-(4-chloro-2-fluoro-3-methoxyphenyl) pyridine-2-carboxylic acid or a derivative thereof and synthetic auxin herbicides” (Dow AgroSciences, LLC., priority 2012, dated 2014).
Where a name gives a salt, the structure may show the parent alone. Read-outs that look alike come from different tables or passages of the source.

Tests used:
TRFRE = assay: Example V: postemergence herbicidal activity of mixtures in forage crops, TRFRE; assay type: in vivo, Trifolium repens (white clover); settings: alone, 17.5 gae/ha, foliar, approximately 21 days
Experimental: (§1) Seeds or root cuttings of the desired test plant species were planted in Sun Gro MetroMix® 306 planting mixture, which typically has a pH of 6.0 to 6.8 and an organic matter content of about 30 percent, in plastic pots with a surface area of 126.6 square centimeters (cm^2). […] The plants were grown for 14-60 days in a greenhouse with an approximate 14 hour photoperiod which was maintained at approximately 28° C. during the day and 24° C. during the night.
(§2) Spray solutions of the second herbicide or experimental compound mixtures were prepared by adding the stock solutions to the appropriate amount of dilution solution to form 12 mL spray solution with active ingredients in two-way combinations.

SOOSS = assay: Example V: postemergence herbicidal activity of mixtures in forage crops, SOOSS; assay type: in vivo, Solidago L. spec. (goldenrod); settings: alone, foliar, approximately 21 days
Experimental: as §1, §2

CIRAR = assay: Example V: postemergence herbicidal activity of mixtures in forage crops, CIRAR; assay type: in vivo, Cirsium arvense (Canada thistle); settings: alone, foliar, approximately 21 days
Experimental: as §1, §2

SINAR = assay: Example V: postemergence herbicidal activity of mixtures in forage crops, SINAR; assay type: in vivo, Sinapis arvensis (wild mustard); settings: alone, foliar, approximately 21 days
Experimental: as §1, §2

ECHOR = assay: Example II: in-water applied herbicidal mixtures, transplanted paddy rice, ECHOR; assay type: in vivo, Echinochloa oryzoides (early watergrass); settings: Echinochloa oryzoides, 504 h, read-out: Visual Weed Control (%) Obs, 21 DAA
Experimental: (§3) The prepared mud was dispensed in 365 mL aliquots into 16-ounce (oz.) non-perforated plastic pots with a surface area of 86.59 square centimeters (cm^2) leaving a headspace of 3 centimeters (cm) in each pot Mud was allowed to dry overnight prior to planting or transplanting. Rice seeds were planted in Sun Gro MetroMix® 306 planting mixture, which typically has a pH of 6.0 to 6.8 and an organic matter content of about 30 percent, in plastic plug trays. Seedlings at the second or third leaf stage of growth were transplanted into 840 mL of mud contained in 32-oz. non-perforated plastic pots with a surface area of 86.59 cm^2 4 days prior to herbicide application. […] Nutrients were added as Osmocote® (19:6:12, N:P:K^+ minor nutrients) at 2 g per 16-oz. pot and 4 g per 32-oz. pot.
(§4) Applications were made by injecting with a pipetter appropriate amounts of the application solutions, individually and sequentially, into the aqueous layer of the paddy. Control plants were treated in the same manner with the solvent blank. Applications were made so that all treated plant material received the same concentrations of acetone and crop oil concentrate.

ECHCG = assay: Example II: in-water applied herbicidal mixtures, transplanted paddy rice, ECHCG; assay type: in vivo, Echinochloa crus-galli (barnyardgrass); settings: 21 DAA
Experimental: as §3, §4

SIDSP = assay: Example V: postemergence herbicidal activity of mixtures in forage crops, SIDSP; assay type: in vivo, Sida spinosa (prickly sida); settings: alone, 50 gae/ha, foliar, approximately 21 days
Experimental: as §1, §2

CASOB = assay: Example V: postemergence herbicidal activity of mixtures in forage crops (greenhouse), CASOB; assay type: in vivo, Cassia obtusifolia (sicklepod); settings: alone, 50 gae/ha, foliar, approximately 21 days
Experimental: as §1, §2

ECHCO = assay: Example I: postemergence foliar-applied herbicidal mixtures, direct seeded rice, ECHCO
Experimental: (§5) The soil matrix was contained in plastic pots with a volume of 1 quart and a surface area of 83.6 square centimeters (cm^2). […] The plants were grown for 8-22 days in a greenhouse with an approximate 14 h photoperiod which was maintained at about 29° C. during the day and 26° C. during the night. Nutrients (Peters Excel® 15-5-15 5-Ca 2-Mg and iron chelate) were applied in the irrigation solution as needed and water was added on a regular basis. Supplemental lighting was provided with overhead metal halide 1000-Watt lamps as necessary. The plants were employed for testing when they reached the first through fourth true leaf stage.
(§6) Treatments consisted of the acid or esters of 4-amino-3-chloro-5-fluoro-6-(4-chloro-2-fluoro-3-methoxy-phenyl)pyridine-2-carboxylic acid (Compound A), each formulated as an SC (suspension concentrate), and various herbicidal components alone and in combination. Forms of compound A were applied on an acid equivalent basis.
(§7) For treatments comprised of formulated compounds, measured amounts of compounds were placed individually in 25 mL glass vials and diluted in a volume of 1.25% (v/v) Agri-Dex® crop oil concentrated to obtain 12× stock solutions. […] Application solutions were prepared by adding an appropriate amount of each stock solution (e.g., 1 mL) and diluted to the appropriate final concentrations with the addition of 10 mL of an aqueous mixture of 1.25% (v/v) crop oil concentrate so that the final spray solutions contained 1.25+/−0.05% (v/v) crop oil concentrate.
(§8) All stock solutions and applications solutions were visually inspected for compound compatibility prior to application. Spray solutions were applied to the plant material with an overhead Mandel track sprayer equipped with a 8002E nozzles calibrated to deliver 187 L/ha over an application area of 0.503 m^2 at a spray height of 18 to 20 inches (46 to 50 cm) above average plant canopy height. Control plants were sprayed in the same manner with the solvent blank.
(§9) The treated plants and control plants were placed in a greenhouse as described above and watered by sub-irrigation to prevent wash-off of the test compounds. After approximately 3 weeks, the condition of the test plants as compared with that of the untreated plants was determined visually and scored on a scale of 0 to 100 percent where 0 corresponds to no injury or growth inhibition and 100 corresponds to complete kill.
(§10) Colby's equation was used to determine the herbicidal effects expected from the mixtures (Colby, S. R. 1967. Calculation of the synergistic and antagonistic response of herbicide combinations. Weeds 15:20-22).
(§11) The following equation was used to calculate the expected activity of mixtures containing two active ingredients, A and B: Expected=A+B−(A×B/100)
(§12) A=observed efficacy of active ingredient A at the same concentration as used in the mixture.
(§13) B=observed efficacy of active ingredient B at the same concentration as used in the mixture.

SCPMA = assay: Example II: in-water applied herbicidal mixtures, transplanted paddy rice, SCPMA; assay type: in vivo; settings: 21 DAA
Experimental: as §3, §4

LEFCH = assay: Example I: postemergence foliar-applied herbicidal mixtures, direct seeded rice, LEFCH; assay type: in vivo, Leptochloa chinensis (Chinese sprangletop)
Experimental: as §5, §6, §7, §8, §9, §10, §11, §12, §13

CYPIR = assay: Example I: postemergence foliar-applied herbicidal mixtures, direct seeded rice, CYPIR; assay type: in vivo, Cyperus iria (rice flatsedge)
Experimental: as §5, §6, §7, §8, §9, §10, §11, §12, §13

Nc1cc(Cl)nc(C(=O)O)c1Cl [Aminopyralid TIPA salt, 4-amino-3,6-dichloropyridine-2-carboxylic acid compound with 1,1′,1″-nitrilotris[2-propanol], reference compound]
TRFRE Obs (observed value) (TRFRE): 35%
SOOSS Obs (observed value) (SOOSS; 17.5 gae/ha): 45%
CIRAR Obs (observed value) (CIRAR; 17.5 gae/ha): 45%
SINAR Obs (observed value) (SINAR; 17.5 gae/ha): 25%
SINAR Obs (observed value) (SINAR; 35 gae/ha): 45%

O=C(O)c1nc(Cl)ccc1Cl [Clopyralid MEA salt, 3,6-dichloro-2-pyridinecarboxylic acid with 2-aminoethanol, reference compound]
SOOSS Obs (observed value) (SOOSS; 35 gae/ha): 25%
CIRAR Obs (observed value) (CIRAR; 35 gae/ha): 75%

COc1c(Cl)ccc(Cl)c1C(=O)O [Dicamba DMA Salt, 3,6-dichloro-2-methoxybenzoic acid compound with N-methylmethanamine, reference compound]
pest or weed control at 140 g/ha (ECHOR; 140 gae/ha): 10%
pest or weed control at 140 g/ha (ECHOR; 140 gai/ha): 10%
pest or weed control at 280 g/ha (ECHOR; 280 gae/ha): 15%
pest or weed control at 280 g/ha (ECHOR; 280 gai/ha): 15%
Visual Weed Control (%) Obs (ECHCG; 140 gae/ha): 0%
Visual Weed Control (%) Obs (ECHCG; 280 gae/ha): 10%
SIDSP Obs (observed value) (SIDSP): 25%
CASOB Obs (observed value) (CASOB): 20%
Visual Weed Control (%) - 20 DAA ECHCO Obs (ECHCO; 70 gae/ha): 0%
Visual Weed Control (%) - 20 DAA ECHCO Obs (ECHCO; 140 gae/ha): 0%
Visual Weed Control (%) - 20 DAA ECHCO Obs (ECHCO; 280 gae/ha): 0%
Visual Weed Control (%) Obs (SCPMA; 140 gae/ha): 0%
Visual Weed Control (%) Obs (SCPMA; 140 gai/ha): 0%
Visual Weed Control (%) Obs (SCPMA; 280 gae/ha): 0%
SINAR Obs (observed value) (SINAR; 50 gae/ha): 65%
Visual Weed Control (%) - 20 DAA LEFCH Obs (LEFCH; 140 gae/ha): 0%
Visual Weed Control (%) - 20 DAA LEFCH Obs (LEFCH; 280 gae/ha): 0%
Visual Weed Control (%) - 20 DAA CYPIR Obs (CYPIR; 70 gae/ha): 0%
Visual Weed Control (%) - 20 DAA CYPIR Obs (CYPIR; 140 gae/ha): 0%
Visual Weed Control (%) - 20 DAA CYPIR Obs (CYPIR; 280 gae/ha): 35%
